# Results: ChEMBL document CHEMBL5046281, “N-Aryl Mercaptopropionamides as Broad-Spectrum Inhibitors of Metallo-β-Lactamases” (J Med Chem, 2022)
# pIC50: −log10 of the molar value. Active and inactive are the calls of the source. The calls are words filed in the database; no cut-off is given here.
# What was measured:
# Escherichia coli [1] = assay: Potentiation of imipenem-induced antibacterial activity against NDM-1 producing Escherichia coli assessed as imipenem MIC at 2 ug/ml by microdilution method (reference value: 128 ug/ml); format: functional; conditions: dose 2 µg/ml
# Escherichia coli [2] = assay: Potentiation of imipenem-induced antibacterial activity against NDM-1 producing Escherichia coli assessed as fold change in imipenem MIC at 64 ug/ml by microdilution method; format: functional; conditions: dose 64 µg/ml
# [3] = Selectivity ratio of MIC for antibacterial activity against OXA-23 producing Acinetobacter baumannii T2434 clinical isolates to MIC for potentiation of imipenem-induced antibacterial activity against OXA-23 producing Acinetobacter baumannii T2434 clinical isolates assessed as imipenem MIC at 128 mg/l; format: functional
# Escherichia coli [4] = assay: Potentiation of imipenem-induced antibacterial activity against NDM-7 producing Escherichia coli T2239 clinical isolates assessed as imipenem MIC at 128 mg/l by microdilution method; format: functional
# Enterobacter cloacae = assay: Potentiation of imipenem-induced antibacterial activity against NDM-1 producing Enterobacter cloacae T2311 clinical isolates assessed as imipenem MIC at 128 mg/l by microdilution method; format: functional
# Klebsiella pneumoniae [5] = assay: Synergistic antibacterial activity against NDM-1-producing Klebsiella pneumoniae T2301 clinical isolate assessed as fractional inhibitory concentration index in presence of imipenem by microdilution checkerboard assay; format: functional
# [6] = Selectivity ratio of MIC for antibacterial activity against GIM-1 producing Enterobacter cloacae T2218 clinical isolates to MIC for potentiation of imipenem-induced antibacterial activity against GIM-1 producing Enterobacter cloacae T2218 clinical isolates assessed as imipenem MIC at 128 mg/l; format: functional
# Acinetobacter baumannii = assay: Potentiation of imipenem-induced antibacterial activity against OXA-23 producing Acinetobacter baumannii T2434 clinical isolates assessed as imipenem MIC at 128 mg/l by microdilution method; format: functional
# [7] = biological target: 72 kDa type IV collagenase (Homo sapiens, UniProt P08253); assay: Inhibition of human MMP-2 at 100 uM relative to control
# Escherichia coli [8] = assay: Potentiation of imipenem-induced antibacterial activity against KPC-2 producing Escherichia coli T2435 clinical isolates assessed as imipenem MIC at 128 mg/l by microdilution method; format: functional
# [9] = Selectivity ratio of MIC for antibacterial activity against NDM-1 producing Enterobacter cloacae T2311 clinical isolates to MIC for potentiation of imipenem-induced antibacterial activity against NDM-1 producing Enterobacter cloacae T2311 clinical isolates assessed as imipenem MIC at 128 mg/l; format: functional
# Escherichia coli [10] = assay: Potentiation of imipenem-induced antibacterial activity against NDM-1 producing Escherichia coli assessed as imipenem MIC at 64 ug/ml by microdilution method (reference value: 128 ug/ml); format: functional; conditions: dose 64 µg/ml
# Klebsiella pneumoniae [11] = assay: Selectivity ratio of MIC for antibacterial activity against NDM-1 producing Klebsiella pneumoniae T2301 clinical isolates to MIC for potentiation of imipenem-induced antibacterial activity against NDM-1 producing Klebsiella pneumoniae T2301 clinical isolates assessed as imipenem MIC at 128 mg/l
# [12] = biological target: T1, Interstitial collagenase (Homo sapiens) (UniProt P03956); assay: Inhibition of human MMP-1 at 100 uM relative to control
# T1 sequence (whole entry): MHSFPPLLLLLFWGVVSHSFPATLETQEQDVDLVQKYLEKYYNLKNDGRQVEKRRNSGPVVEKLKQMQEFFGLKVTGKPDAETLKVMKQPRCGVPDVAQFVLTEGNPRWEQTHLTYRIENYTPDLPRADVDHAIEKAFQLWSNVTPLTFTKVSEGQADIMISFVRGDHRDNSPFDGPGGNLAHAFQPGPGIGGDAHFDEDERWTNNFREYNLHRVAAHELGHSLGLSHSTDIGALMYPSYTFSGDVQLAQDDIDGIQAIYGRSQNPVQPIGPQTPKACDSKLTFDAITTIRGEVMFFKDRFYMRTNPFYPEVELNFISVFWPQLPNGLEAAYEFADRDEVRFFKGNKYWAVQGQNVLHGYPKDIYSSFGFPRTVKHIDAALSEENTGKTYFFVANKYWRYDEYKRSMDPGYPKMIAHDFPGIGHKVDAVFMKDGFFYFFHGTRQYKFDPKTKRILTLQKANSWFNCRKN
# [13] = Selectivity ratio of MIC for antibacterial activity against VIM-1 producing Pseudomonas aeruginosa T2357 clinical isolates to MIC for potentiation of imipenem-induced antibacterial activity against VIM-1 producing Pseudomonas aeruginosa T2357 clinical isolates assessed as imipenem MIC at 128 mg/l; format: functional
# [14] = biological target: T2, Matrilysin (Homo sapiens) (UniProt P09237); assay: Inhibition of human MMP-7 at 100 uM relative to control
# T2 sequence (whole entry): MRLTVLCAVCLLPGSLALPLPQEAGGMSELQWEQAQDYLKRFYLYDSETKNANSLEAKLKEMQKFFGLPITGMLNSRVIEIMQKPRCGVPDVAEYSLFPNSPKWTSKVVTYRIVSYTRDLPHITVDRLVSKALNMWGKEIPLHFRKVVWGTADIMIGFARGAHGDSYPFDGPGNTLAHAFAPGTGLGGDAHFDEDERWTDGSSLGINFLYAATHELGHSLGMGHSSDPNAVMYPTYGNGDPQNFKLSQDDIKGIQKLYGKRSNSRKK
# A549 = assay: Cytotoxicity against human A549 cells assessed as reduction in cell viability at 100 uM relative to control; format: toxicity, cell-based; conditions: a549, 100 µM
# Klebsiella pneumoniae [15] = assay: Antibacterial activity against imipenem-resistant NDM-1-producing Klebsiella pneumoniae T2301 at 128 mg/L measured after 24 hrs by time-kill assay; format: functional, organism-based
# [16] = Inhibition of Escherichia coli IMP-7 using fluorocillin as substrate incubated for 30 mins by fluorescence based assay
# Klebsiella pneumoniae [17] = assay: Potentiation of imipenem-induced antibacterial activity against NDM-1 producing Klebsiella pneumoniae T2301 clinical isolates assessed as imipenem MIC at 128 mg/l by microdilution method; format: functional
# [18] = biological target: Neutrophil collagenase (Homo sapiens) (UniProt P22894); assay: Inhibition of human MMP-8 at 100 uM relative to control
# Escherichia coli [19] = assay: Potentiation of imipenem-induced antibacterial activity against NDM-1 producing Escherichia coli assessed as fold change in imipenem MIC at 128 ug/ml by microdilution method; format: functional; conditions: dose 128 µg/ml
# [20] = biological target: Stromelysin-1 (Homo sapiens) (UniProt P08254); assay: Inhibition of human MMP-3 at 100 uM relative to control
# Klebsiella pneumoniae [21] = assay: Antibacterial activity against imipenem-resistant NDM-1-producing Klebsiella pneumoniae T2301 infected in Galleria mellonella larvae assessed as survival rate at 38.4 ug injected via proleg measured after 3 days in presence of imipenem by Kaplan-Meier method; format: functional; conditions: dose 38.4 µg; time 3 day
# BlaVIM-1 = BlaVIM-1 (Escherichia coli, UniProt Q8GDC1); assay: Inhibition of Escherichia coli VIM-1 using fluorocillin as substrate incubated for 30 mins by fluorescence based assay
# [22] = Selectivity ratio of MIC for antibacterial activity against NDM-1 producing Serratia marcescens T2352 clinical isolates to MIC for potentiation of imipenem-induced antibacterial activity against NDM-1 producing Serratia marcescens T2352 clinical isolates assessed as imipenem MIC at 128 mg/l; format: functional
# Neutrophil collagenase (Homo sapiens), sequence (P22894 101-467 limits assumed): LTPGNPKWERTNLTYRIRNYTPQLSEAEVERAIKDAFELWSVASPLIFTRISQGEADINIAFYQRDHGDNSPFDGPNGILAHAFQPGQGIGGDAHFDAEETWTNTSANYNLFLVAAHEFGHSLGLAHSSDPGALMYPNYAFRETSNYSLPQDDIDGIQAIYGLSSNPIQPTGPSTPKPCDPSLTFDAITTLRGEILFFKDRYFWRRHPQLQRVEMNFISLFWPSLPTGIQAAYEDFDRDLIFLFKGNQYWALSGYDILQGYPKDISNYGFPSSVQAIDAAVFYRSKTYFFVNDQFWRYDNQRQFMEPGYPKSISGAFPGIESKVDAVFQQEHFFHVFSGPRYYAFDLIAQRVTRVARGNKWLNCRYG
# Stromelysin-1 (Homo sapiens), sequence (P08254 100-477 limits assumed): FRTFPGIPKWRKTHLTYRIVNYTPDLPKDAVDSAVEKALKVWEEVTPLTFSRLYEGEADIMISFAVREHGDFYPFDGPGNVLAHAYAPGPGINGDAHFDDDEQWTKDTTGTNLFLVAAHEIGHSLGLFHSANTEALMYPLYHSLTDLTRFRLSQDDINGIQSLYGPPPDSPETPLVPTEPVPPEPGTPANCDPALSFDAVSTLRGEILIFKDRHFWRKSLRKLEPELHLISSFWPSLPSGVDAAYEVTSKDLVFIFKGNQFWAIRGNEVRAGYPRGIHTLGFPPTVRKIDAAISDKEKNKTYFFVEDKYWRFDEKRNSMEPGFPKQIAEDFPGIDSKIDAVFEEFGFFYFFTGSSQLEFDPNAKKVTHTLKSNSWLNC
# 72 kDa type IV collagenase, sequence (P08253 110-660 limits assumed): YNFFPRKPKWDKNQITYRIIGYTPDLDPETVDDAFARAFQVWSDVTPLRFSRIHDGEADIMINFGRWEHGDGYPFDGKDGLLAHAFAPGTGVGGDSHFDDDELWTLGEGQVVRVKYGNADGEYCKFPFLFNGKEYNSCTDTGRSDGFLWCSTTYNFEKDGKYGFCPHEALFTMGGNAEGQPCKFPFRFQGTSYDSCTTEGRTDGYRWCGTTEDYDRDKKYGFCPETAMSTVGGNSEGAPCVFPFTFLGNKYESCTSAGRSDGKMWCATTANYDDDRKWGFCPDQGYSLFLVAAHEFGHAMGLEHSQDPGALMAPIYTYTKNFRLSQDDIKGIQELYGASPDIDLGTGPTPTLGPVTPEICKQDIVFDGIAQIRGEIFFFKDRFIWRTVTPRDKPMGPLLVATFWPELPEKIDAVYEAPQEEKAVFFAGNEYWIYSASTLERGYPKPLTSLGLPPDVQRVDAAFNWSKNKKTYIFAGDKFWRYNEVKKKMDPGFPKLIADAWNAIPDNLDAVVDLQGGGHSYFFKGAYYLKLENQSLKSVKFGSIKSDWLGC
smiles,measurement,setting,value
O=C(CCS)Nc1cccc(C(=O)O)c1,MIC,Escherichia coli [1],128 µg/mL
same,fold change (FC),Escherichia coli [2],64
same,Ratio,[3],1
same,MIC,Escherichia coli [4],2 µg/mL
same,MIC,Enterobacter cloacae,1 µg/mL
same,fractional inhibitory concentration index (FICI),Klebsiella pneumoniae [5],0.25
same,Ratio,[6],1
same,MIC,Acinetobacter baumannii,32 µg/mL
same,inhibition,[7],< 10%
same,MIC,Escherichia coli [8],4 µg/mL
same,Ratio,[9],8
same,MIC,Escherichia coli [10],2 µg/mL
same,Ratio,Klebsiella pneumoniae [11],32
same,inhibition,[12],< 10%
same,Ratio,[13],1
same,inhibition,[14],< 10%
same,Activity,A549,< 10%
same,Activity,Klebsiella pneumoniae [15],inactive
same,pIC50,[16],5.19
same,MIC,Klebsiella pneumoniae [17],0.5 µg/mL
same,inhibition,[18],< 10%
same,fold change (FC),Escherichia coli [19],256
same,inhibition,[20],< 10%
same,Activity,Klebsiella pneumoniae [21],<=56%
same,pIC50,BlaVIM-1,5.92
same,Ratio,[22],64
